Measured values reported in patent EP4620312A1, “ENDOTHELIN-1 SECRETION INHIBITOR” (Mitsui DM Sugar Co., Ltd., priority 2022, dated 2024).

Test system: endothelin-1
Experiment: Endothelin-1 concentration in blood (ELISA) before and after a 75-g OGTT during 12-week daily jelly ingestion
Type: in vivo, human
Settings: for endothelin-1 concentration at 60 minutes and 120 minutes after the 75-g OGTT compared to before the 75-g OGTT: healthy middle to elderly persons
Protocol: Subjects were 54 healthy middle to elderly persons (30 males and 24 females). All subjects were assigned to one of the groups, i.e., an isomaltulose ingestion group (Group I) and a sucrose ingestion group (Group S), in a single blind test before intervention, and the intervention was performed for 12 weeks each.
All subjects ingested jellies having compositions described in Table 1 once a day for 12 weeks continuously. Group I received a jelly containing isomaltulose (Example 1), and group S received a jelly containing sucrose (Comparative Example 1). The jelly was taken every morning before breakfast, and all subjects were instructed not to change their dietary habits during the intervention period from those before the intervention. A 75 g oral glucose tolerance test (75-g OGTT, described in detail below) was performed before the 12-week intervention and at 4 weeks, 8 weeks, and 12 weeks after the start of the intervention, after the lapse of 1 day or more from the ingestion of the jelly and the secretion amount of endothelin-1 was evaluated by the method described below before the 75-g OGTT and at 60 minutes and 120 minutes after the 75-g OGTT.
The 75-g OGTT was performed under the instruction of a doctor using TRELAN- G 75 g (Yoshindo Inc.), which is generally used in medical institutions and research, and the test solution was orally ingested in a general volume (225 mL per dose) within 5 minutes according to the guidelines of the Japan Diabetes Society (Araki E, Goto A, Kondo T, Noda M, Noto H, Origasa H, et al. Japanese Clinical Practice Guideline for Diabetes 2019. J Diabetes Investig 2020; 11: 1020-1076.).
For all subjects, blood was collected from the cubital vein in a fasting state for 12 hours or more in a hygienic environment. Before ingestion of a carbohydrate solution for the 75-g OGTT and at 60 minutes and 120 minutes after the ingestion, a nurse collected blood (15 to 20 mL per collection) using a sterilized disposable blood collection needle under the instruction of a doctor. A sample after blood collection was immediately centrifuged at 4°C and 3000 rpm for 15 minutes, and the concentration of endothelin-1 was measured by ELISA (enzyme-linked immunosorbent assay) using a test kit (Cayman Chemical, Ann Arbor) for measuring the concentration of endothelin-1.
A change in endothelin-1 concentration before and after the start of the intervention of each group was shown as the average value (95% confidence interval). For the comparison of the change in endothelin-1 concentration between the 2 groups before and after the 75-g OGTT, a two-way repeated measures ANOVA was used. The Bonferroni method was performed for comparison of changes in each intervention in post-hoc test. The total area under the curve at 90 minutes (endothelin-1 concentration AUC) was calculated using the trapezoidal rule. For statistical analysis, IBM SPSS Statistics Ver. 25 (manufactured by IBM Corporation) was used. The statistical significance level in this test was set at 5%.

[1] = jelly with 25 g once a day, oral, at 4, 8, and 12 weeks after the start of the intervention

Row | Compound | endothelin-1 concentration at 60 minutes and 120 minutes after the 75-g OGTT compared to before the 75-g OGTT [1] | secretion of endothelin-1 (overall conclusion) (after 75-g OGTT at 4, 8, and 12 weeks after the start of the intervention, Group I versus Group S) | endothelin-1 concentration before the 75-g OGTT and at 60 minutes and 120 minutes after the 75-g OGTT, Group I versus Group S (jelly with 25 g once a day, oral, at 4, 8, and 12 weeks after the start of the intervention, p < 0.01) | endothelin-1 concentration AUC, Group I versus Group S (jelly with 25 g once a day, oral, at 4, 8, and 12 weeks after the start of the intervention, trapezoidal rule, p < 0.01)
1 | OC[C@H]1O[C@@](CO)(O[C@H]2O[C@H](CO)[C@@H](O)[C@H](O)[C@H]2O)[C@@H](O)[C@@H]1O [sucrose, reference compound] | significantly increased |  |  | 
2 | 6-O-α-D-glucopyranosyl-D-fructose [isomaltulose] | no significant change | inhibited the secretion of endothelin-1 | significantly lower value | significantly lower value
